Results taken from paper PMC8156467, “Disruption of YY1-EZH2 Interaction Using Synthetic Peptides Inhibits Breast Cancer Development” (Cancers, 2021).

What was measured:
[1] = target: His×6-YY1 (Homo sapiens, UniProt P25490); assay: GST pull-down of His×6-YY1 by GST-EZH2 mutants; assay type: binding; conditions: 1.0 µg His×6-YY1, 4 h
Description: (§1) HA-tagged expression vectors of wild-type (wt) and mutant YY1 were constructed by amplifying and subcloning the corresponding fragments of the YY1 coding region into the pcDNA3 vector. To generate EZH2 mutants, different regions of its coding sequence (1–251, 252–384, 385–618, 619–751, 385–465, 465–545, 545–618, 465–492, and 465–519) were amplified and subcloned into pGEX-4T-1 and pSL4-3×Flag plasmids to construct vectors expressing recombinant GST-EZH2 and 3×Flag-EZH2 mutants, respectively. To generate vectors expressing 3×Flag-YPB, -OPB, and -Cont (with a scrambled sequence of […]) peptides, their coding sequences were individually subcloned into a lentiviral vector pSL4 using the CMV promoter to drive the expression of 3×Flag-YPB-2A1-EGFP, 3×Flag-OPB-2A1-EGFP, and 3×Flag-Cont-2A1-EGFP. […] Two shRNAs against PTENP1 (shPTENP1-1 and shPTENP1-2, with target sequences of […] and […], respectively), and one control shRNA (with a scrambled target sequence of […]) driven by the U6 promoter were generated in a lentiviral vector with a puromycin selection marker as we previously described. In addition, we also generated lentiviruses expressing two shRNAs (shYY1-1 and shYY1-2, with target sequences of […] and […], respectively), and two EZH2 (shEZH2-1 and shEZH2-2, with target sequences of […] and […]-[…], respectively).
The GST fusion protein expressed in E. coli was lysed with the binding buffer (20 mM Tris⋅HCl, pH 7.5, 150 mM NaCl, 0.1% Nonidet P-40, 1 mM dithiothreitol, 10% glycerol, 1 mM EDTA, 2.5 mM MgCl2, and 1 µg/mL leupeptin) for 30 min at 4 °C. Glutathione-Sepharose beads (Thermo Fisher Scientific) were incubated with bacterial lysates containing expressed recombinant GST-EZH2 mutant proteins for 4 h at 4 °C. After extensive washing of the beads, 1.0 µg of purified His×6-YY1 was added, and the samples were incubated for another 4 h. The washed beads with bound proteins were resuspended in an SDS-containing sample buffer and analyzed by SDS-PAGE.

[2] = test system: breast cancer cells (MCF-7, MDA-MB-231, MDA-MB-453); assay: Annexin V-FITC/PI apoptosis, breast cancer cells together; assay type: cell-based; conditions: peptides 30 μM (no FITC), tamoxifen 15 µM, 48 h; vs Cont
Method: The cells were collected by trypsinization and washed twice by ice-cold PBS, followed by Annexin V-FITC and propidium iodide (PI) staining for 10 min using the reagents in an Annexin V-FITC Apoptosis Detection Kit (Vazyme Biotech Co. Ltd., Nanjing, China). The ratios of apoptotic cells were evaluated using flow cytometry (AccuriC6, BD Biosciences, San Jose, CA, USA).

[3] = test system: HA-YY1; assay: Co-IP of Flag-EZH2 wt/mutants with HA-YY1; assay type: binding; conditions: co-IP, Flag-tagged EZH2 and HA-YY1
Description: as §1
Immunoprecipitations were performed as described previously. Cells were harvested and lysed in cell lysis buffer (50 mM Tris⋅HCl, pH 7.5, 150 mM NaCl, 1% Nonidet P-40, 0.5% sodium deoxycholate, and 1% protease inhibitor cocktails, Sigma-Aldrich). […] In Western blot studies, protein concentrations of samples were determined using the Bradford protein method, and 20 μg of proteins for each sample were separated by SDS-PAGE followed by transfer to polyvinylidene difluoride (PVDF) membranes. […]
Figure 1 Identification of YY1 binding site on EZH2 protein. […] The samples were analyzed by Western blot using EZH2 and YY1 antibodies as indicated. […]

Chain of His×6-YY1 (P25490 whole entry, the tested form may be a part): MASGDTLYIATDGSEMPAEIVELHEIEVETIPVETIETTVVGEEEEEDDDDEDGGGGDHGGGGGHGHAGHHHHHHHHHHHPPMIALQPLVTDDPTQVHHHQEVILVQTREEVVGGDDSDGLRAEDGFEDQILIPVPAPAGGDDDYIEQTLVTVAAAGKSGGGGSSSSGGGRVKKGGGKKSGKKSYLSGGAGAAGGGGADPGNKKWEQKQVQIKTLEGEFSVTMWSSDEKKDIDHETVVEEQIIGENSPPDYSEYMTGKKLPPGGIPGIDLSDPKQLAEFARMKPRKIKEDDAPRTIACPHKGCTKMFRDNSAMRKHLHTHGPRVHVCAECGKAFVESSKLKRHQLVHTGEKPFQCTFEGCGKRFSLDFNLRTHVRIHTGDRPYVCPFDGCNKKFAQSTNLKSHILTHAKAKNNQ

Compound | interaction with His×6-YY1 in GST pull-down [1] | interaction with HA-YY1 in co-IP [3] | also measured
GST-EZH2 (465–545): GST fusion of EZH2 residues 465–545 | could also pull down His×6-YY1 | – | –
CC/C(=C(\c1ccccc1)c1ccc(OCCN(C)C)cc1)c1ccccc1 [tamoxifen] | – | – | pro-apoptotic portions of breast cancer cells [2]: could significantly increase the pro-apoptotic portions
(385–618): Flag-tagged EZH2 region 385–618 | – | could bring down HA-YY1 | –
GST-EZH2 (385–618): GST fusion of EZH2 residues 385–618 | could interact with His×6-YY1 | – | –
GST-EZH2 (465–519): GST fusion of EZH2 residues 465–519 | could interact with His×6-YY1 | – | –
EZH2 (465–545): Flag-tagged EZH2 mutant 465–545 | – | could interact with HA-YY1 | –
Flag-EZH2 wt: Flag-tagged wild-type EZH2 | – | could bring down HA-YY1 | –
